Data taken from PMC6499206, “Quantification of Volatile Metabolites Derived From Garlic (Allium sativum) in Human Urine” (Frontiers in Nutrition, 2019).

Assay: Quantification of garlic-derived metabolites in human urine after ingestion of 3 g raw garlic (SIDA, SAFE, HRGC-MS / HRGC-GC-MS)
Assay type: in vivo
Settings: 3 g raw garlic
From the text: Human urine samples were obtained from 18 volunteers (age 22–38 years, mean 27 years; 11 females, 7 males); thereby, one volunteer conducted the whole experimental series twice. At the time of examination, volunteers reported no known illness that might have potentially influenced the metabolism or the excretion of urine. The test persons were instructed to avoid foods that were rich in sulfur-containing substances at the testing day as well as 2 days preceding the testing day, namely garlic, onion, wild garlic, chives, cabbage, and leek, and were only allowed to consume the garlic sample provided in the course of the experiments. Additionally, subjects were asked to keep records of the food (including food supplements) and beverages they consumed during these 3 testing days. Generally, the overall panelists' requirements were in accordance with our previous studies ([5], [16]).
On the sampling day, the outer garlic cloves of a whole garlic bulb were peeled and cut into ~3 mm cubes by using a garlic cutter (Genius GmbH, Limburg/Lahn, Germany). Subsequently these cubes were thoroughly mixed and aliquoted into 3 g portions. Three to four test persons conducted the experiment at the same day. Each test person was asked to ingest a garlic portion of 3 g. In total, eight consecutive urine samples were provided by each test person, comprising one whole urine set. The samples were collected in sterile brown glass bottles, with sampling times as follows: one sample was provided directly prior to garlic consumption. The series of the second to eighth sample was then obtained at about 0.5, 1, 2, 4, 6, 8, and 24 h after garlic consumption, respectively. Between the first urine sample (prior to garlic consumption) and the seventh urine sample (8 h after garlic consumption) test persons only spent urine at the specific time points mentioned before. Another sample was provided at the next morning (24 h after garlic consumption). Between the samples provided 8 and 24 h after garlic consumption no urine was collected. All samples were immediately placed into a −80°C freezer and were kept frozen until further analysis.
The samples of each set were termed according to their sampling time. The following list provides the time intervals that are related to the respective sample name: • - pre: before garlic consumption • - 0.5 h post: 0.4–0.8 h after garlic consumption • - 1 h post: 0.9–1.3 h after garlic consumption • - 2 h post: 1.8 h−2.2 h after garlic consumption • - 4 h post: 3.8–4.4 h after garlic consumption • - 6 h post: 5.8–6.4 h after garlic consumption • - 8 h post: 7.8–8.4 h after garlic consumption • - 24 h post: 23.8–25.6 h after garlic consumption
A creatinine kit (Labor+Technik Eberhard Lehmann GmbH, Berlin, Germany) was used to determine the creatinine content in each urine sample. The determination principle of this kit is based on the reaction of creatinine with picric acid under basic conditions (Jaffé reaction). The formed complex was detected photometrically at a wavelength of 492 nm.
For quantification purposes, the deuterated standards ^2H3-AMS, ^2H3-AMSO, and ^2H3-AMSO2 were added to the sample and stirred for 10 min. Subsequently, DCM was added in a ratio of 1:2 (DCM/human urine; v/v) and this solution was stirred for further 30 min at room temperature. To isolate the volatile fraction from the urine samples we then applied SAFE-distillation ([17]), thereby distilling the respective samples at 50°C. After completion of the distillation process, 10 mL of DCM were applied in each case to rinse the SAFE apparatus and to ensure complete transition of the volatile compounds. This process was repeated with another 10 mL of DCM. After thawing, the obtained aqueous distillate phase was extracted three times with 25 mL DCM. The organic phases were combined, dried over anhydrous Na2SO4 and concentrated to a total volume of 100 μL by means of Vigreux distillation and subsequent micro-distillation at 50°C. […]

With C=CCSC [AMS, allyl methyl sulfide] the “metabolite concentration in urine, creatinine-normalized” value (U VII, 1 h post (1.08 h)) was 0.8 µg/mmol creatinine, the “metabolite concentration in urine” value (U VII, 2 h post (2.00 h)) was 0.8 µg/kg and the “metabolite concentration in urine, creatinine-normalized” value (U VII, 2 h post (2.00 h)) was 0.8 µg/mmol creatinine. For the same compound, the “metabolite concentration in urine” value (U VII, 4 h post (4.00 h)) was 0.6 µg/kg, the “metabolite concentration in urine, creatinine-normalized” value (U VII, 4 h post (4.00 h)) was 0.3 µg/mmol creatinine and the “metabolite concentration in urine” value (U VII, 6 h post (6.00 h)) was 0.7 µg/kg. For the same compound, the “metabolite concentration in urine, creatinine-normalized” value (U VII, 6 h post (6.00 h)) was 0.2 µg/mmol creatinine, the “metabolite concentration in urine” value (U VII, 8 h post (8.00 h)) was 0.4 µg/kg and the “metabolite concentration in urine, creatinine-normalized” value (U VII, 8 h post (8.00 h)) was 0.2 µg/mmol creatinine. The “metabolite concentration in urine” value (U VII, 24 h post (24.00 h)) was “traces^1”, the “metabolite concentration in urine, creatinine-normalized” value (U VII, 24 h post (24.00 h)) was “traces^1” and the “metabolite concentration in urine” value (U VII, pre (-0.25 h)) was “traces^1”. For the same compound, the “metabolite concentration in urine, creatinine-normalized” value (U VII, pre (-0.25 h)) was “traces^1”, the “metabolite concentration in urine” value (U VIII, 0.5 h post (0.52 h)) was 1.9 µg/kg and the “metabolite concentration in urine, creatinine-normalized” value (U VIII, 0.5 h post (0.52 h)) was 2.3 µg/mmol creatinine. The “metabolite concentration in urine” value (U VIII, 1 h post (1.08 h)) was 1.9 µg/kg, the “metabolite concentration in urine, creatinine-normalized” value (U VIII, 1 h post (1.08 h)) was 1.1 µg/mmol creatinine and the “metabolite concentration in urine” value (U VIII, 2 h post (2.08 h)) was 1.5 µg/kg. The “metabolite concentration in urine, creatinine-normalized” value (U VIII, 2 h post (2.08 h)) was 1.4 µg/mmol creatinine, the “metabolite concentration in urine” value (U VIII, 4 h post (4.07 h)) was 1.6 µg/kg and the “metabolite concentration in urine, creatinine-normalized” value (U VIII, 4 h post (4.07 h)) was 0.7 µg/mmol creatinine. The “metabolite concentration in urine” value (U VIII, 6 h post (6.08 h)) was 1.3 µg/kg, the “metabolite concentration in urine, creatinine-normalized” value (U VIII, 6 h post (6.08 h)) was 0.3 µg/mmol creatinine and the “metabolite concentration in urine” value (U VIII, 8 h post (7.90 h)) was 0.8 µg/kg. For the same compound, the “metabolite concentration in urine, creatinine-normalized” value (U VIII, 8 h post (7.90 h)) was 0.3 µg/mmol creatinine, the “metabolite concentration in urine” value (U VIII, 24 h post (23.83 h)) was 0.3 µg/kg and the “metabolite concentration in urine, creatinine-normalized” value (U VIII, 24 h post (23.83 h)) was 0.1 µg/mmol creatinine. The “metabolite concentration in urine” value (U VIII, pre (-0.33 h)) was 0.5 µg/kg, the “metabolite concentration in urine, creatinine-normalized” value (U VIII, pre (-0.33 h)) was 0.1 µg/mmol creatinine and the “metabolite concentration in urine” value (U X, 0.5 h post (0.53 h)) was 0.4 µg/kg. The “metabolite concentration in urine, creatinine-normalized” value (U X, 0.5 h post (0.53 h)) was 0.2 µg/mmol creatinine, the “metabolite concentration in urine” value (U X, 1 h post (1.03 h)) was 0.4 µg/kg and the “metabolite concentration in urine, creatinine-normalized” value (U X, 1 h post (1.03 h)) was 0.5 µg/mmol creatinine. For the same compound, the “metabolite concentration in urine” value (U X, 2 h post (2.03 h)) was 0.3 µg/kg, the “metabolite concentration in urine, creatinine-normalized” value (U X, 2 h post (2.03 h)) was 0.5 µg/mmol creatinine and the “metabolite concentration in urine” value (U X, 4 h post (3.85 h)) was 0.4 µg/kg. For the same compound, the “metabolite concentration in urine, creatinine-normalized” value (U X, 4 h post (3.85 h)) was 0.3 µg/mmol creatinine, the “metabolite concentration in urine” value (U X, 6 h post (5.80 h)) was 0.5 µg/kg and the “metabolite concentration in urine, creatinine-normalized” value (U X, 6 h post (5.80 h)) was 0.2 µg/mmol creatinine. The “metabolite concentration in urine” value (U X, 8 h post (7.75 h)) was 0.3 µg/kg, the “metabolite concentration in urine, creatinine-normalized” value (U X, 8 h post (7.75 h)) was 0.1 µg/mmol creatinine and the “metabolite concentration in urine” value (U X, 24 h post (23.97 h)) was 0.2 µg/kg. The “metabolite concentration in urine, creatinine-normalized” value (U X, 24 h post (23.97 h)) was 0.02 µg/mmol creatinine, the “metabolite concentration in urine” value (U X, pre (-0.07 h)) was “< LOD^1” and the “metabolite concentration in urine, creatinine-normalized” value (U X, pre (-0.07 h)) was “< LOD^1”. For the same compound, the “metabolite concentration in urine” value (U XI, 0.5 h post (0.50 h)) was 0.4 µg/kg, the “metabolite concentration in urine, creatinine-normalized” value (U XI, 0.5 h post (0.50 h)) was 0.4 µg/mmol creatinine and the “metabolite concentration in urine” value (U XI, 1 h post (1.02 h)) was 0.6 µg/kg. The “metabolite concentration in urine, creatinine-normalized” value (U XI, 1 h post (1.02 h)) was 0.7 µg/mmol creatinine, the “metabolite concentration in urine” value (U XI, 2 h post (2.00 h)) was 0.5 µg/kg and the “metabolite concentration in urine, creatinine-normalized” value (U XI, 2 h post (2.00 h)) was 0.7 µg/mmol creatinine. For the same compound, the “metabolite concentration in urine” value (U XI, pre (-0.08 h)) was 0.8 µg/kg, the “metabolite concentration in urine, creatinine-normalized” value (U XI, pre (-0.08 h)) was 0.2 µg/mmol creatinine and the “metabolite concentration in urine” value (U XII, 0.5 h post (0.48 h)) was 0.3 µg/kg. The “metabolite concentration in urine, creatinine-normalized” value (U XII, 0.5 h post (0.48 h)) was 0.04 µg/mmol creatinine, the “metabolite concentration in urine” value (U XII, 1 h post (1.03 h)) was 0.3 µg/kg and the “metabolite concentration in urine, creatinine-normalized” value (U XII, 1 h post (1.03 h)) was 0.3 µg/mmol creatinine. The “metabolite concentration in urine” value (U XII, 2 h post (1.85 h)) was 0.9 µg/kg.
